This test has as its target T1, human GR (Homo sapiens, UniProt P04150).
T1 construct: naturally expresses the human GR; endogenous in cells
T1 sequence (P04150 1-777): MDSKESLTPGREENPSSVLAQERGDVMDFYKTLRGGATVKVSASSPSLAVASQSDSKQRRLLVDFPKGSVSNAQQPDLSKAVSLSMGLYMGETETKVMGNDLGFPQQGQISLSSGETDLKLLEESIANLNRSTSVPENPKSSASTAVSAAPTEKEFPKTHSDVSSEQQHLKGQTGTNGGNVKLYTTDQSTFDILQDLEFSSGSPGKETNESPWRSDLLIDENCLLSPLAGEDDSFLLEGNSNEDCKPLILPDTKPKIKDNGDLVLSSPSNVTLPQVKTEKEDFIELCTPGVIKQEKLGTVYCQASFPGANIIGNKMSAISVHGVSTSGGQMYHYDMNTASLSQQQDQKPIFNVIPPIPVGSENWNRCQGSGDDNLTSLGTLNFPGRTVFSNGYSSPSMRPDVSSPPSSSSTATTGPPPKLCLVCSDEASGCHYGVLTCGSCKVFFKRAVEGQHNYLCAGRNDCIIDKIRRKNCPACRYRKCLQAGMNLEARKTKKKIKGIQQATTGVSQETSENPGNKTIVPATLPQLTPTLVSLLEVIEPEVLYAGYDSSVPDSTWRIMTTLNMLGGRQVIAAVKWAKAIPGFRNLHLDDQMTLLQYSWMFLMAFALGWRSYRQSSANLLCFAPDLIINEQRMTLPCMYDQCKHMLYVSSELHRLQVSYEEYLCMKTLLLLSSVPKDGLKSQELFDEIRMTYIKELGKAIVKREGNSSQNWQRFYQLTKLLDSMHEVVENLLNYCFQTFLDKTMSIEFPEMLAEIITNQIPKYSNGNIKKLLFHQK
Description: Trans-Activation Modulation of Glucocorticoid Receptor Assay (GRAMMER), MMTV-LUC reporter in A549 cells. In kind it is cell-based. The note with it: for Emax: A549, Emax relative to the activity obtained with 300 nM dexamethasone, read-out: Transactivation A549 Cells GRAMMER Emax (%); for EC50: inflection point (IP), MMTV-LUC reporter, read-out: Transactivation A549 Cells GRAMMER IP. The text has this: This assay assesses the ability of test compounds to control transcription from the MMTV-LUC reporter gene in lung adenocarcinoma A549 cells or HeLa cells, a human […] cell line that naturally expresses the human GR. The assay measures induction of a modified MMTV LTR/promoter linked to the LUC reporter gene.
The routine transient assay consists of plating 7,000-25,000 cells/well of a white, clear-bottom 96-well plate. Alternatively, 384-well plates can be used at a cell concentration of 10,000/well. The media that the cells are plated in is “exponential growth medium” which consists of phenol red-free RPMI1640 containing 10% FBS, 4 mM L-glutamine, 20 mM HEPES, 10 ug/mL human insulin, and 20 ug/mL gentamicin. Incubator conditions are 37° C. and 5% CO2. The transfection is done in batch mode. The cells are trypsinized and counted to the right cell number in the proper amount of fresh media. It is then gently mixed with the FuGene6/DNA mix and plated onto the 96 or 384-well plate, all the wells receive 100 uL or 40 uL, respectively, of medium+lipid/DNA complex then incubated 37° C. overnight. The transfection cocktail consists of serum-free OptiMEM, FuGene6 reagent and DNA. The manufacturer's (Roche Biochemical) protocol for cocktail setup is as follows: The lipid to DNA ratio is approximately 2.5:1 and the incubation time is 20 min at room temperature. Sixteen to 24 hours after transfection, the cells are treated with dexamethasone to a final concentration of 10 nM as well as the compound of interest, such that final DMSO (vehicle) concentration is equal to or less than 1%. Each plate also contains samples that are treated with 10 nM dexamethasone alone, which is used as the 100% activity control. The cells are exposed to the compounds for 24 hours. After 24 hours, the cells are lysed by a Promega cell culture lysis buffer for approximately 30 min and then the luciferase activity in the extracts is assayed in the 96-well format luminometer. In 384-well format, Steady-Glo (Promega) or Steady-Lite (PerkinElmer) can be used by adding an equal volume of reagent to the media present in each well. Activity induced by 10 nM dexamethasone alone is set at 100% activity. Antagonist activity is calculated by determining the decrease in dexamethasone-induced activity in response to compound treatment relative to samples that were treated with dexamethasone alone. Results are expressed as % inhibition of 10 nM dexamethasone activity or as fold of 10 nM dexamethasone activity. This transactivation assay can be performed in an agonist and antagonist mode to identify these different activities.
Activity of test compounds is calculated as the Emax relative to the activity obtained with 300 nM dexamethasone. Activity of test compounds is calculated as the Emax relative to the activity obtained with 300 nM DEX. The exemplified tissue selective glucocorticoid receptor modulators of the present invention display agonist activity in this assay of greater than 5% and less than 100%, and maximal transactivation activity less then maximal transrepression activity. […]

Molecules are shown by their SMILES.

Turning to `C[C@]12Cc3cnn(-c4ccc(F)cc4)c3C=C1CC[C@@]2(CO)CC1OC(=O)c2ccccc21` (stereo partly drawn) [Example 11, 3-{[(4αS,5R)-1-(4-fluorophenyl)-5-(hydroxymethyl)-4α-methyl-1,4,4α,5,6,7,7a,8-octahydrocyclopenta[f]indazol-5-yl]methyl}-2-benzofuran-1(3H)-one], the maximum response (Emax) – broadly, the greatest response seen or fitted, relative to the assay's reference – was found to be 41.8% and the EC50 was 332 nM.

Consider `Cc1ccc(C(O)C[C@]2(CO)CCC3=Cc4c(cnn4-c4ccc(F)cc4)C[C@@]32C)nc1` (stereo partly drawn) [Example 16, 2-[(4αS,5R)-1-(4-fluorophenyl)-5-(hydroxymethyl)-4α-methyl-1,4,4α,5,6,7-hexahydrocyclopenta[f]indazol-5-yl]-1-(5-methylpyridin-2-yl)ethanol], for which the Emax is 38.3% and the EC50 worked out at 18.4 nM.

Source of the values: patent US20120095055A1, “HEXAHYDROCYCLOPENTYL[f]INDAZOLE 5-HYDROXYMETHYL ETHANOLS AND DERIVATIVES THEREOF AS SELECTIVE GLUCOCORTICOID RECEPTOR MODULATORS” (Merck Sharp & Dohme, Corp., priority 2009, published 2012).
